# Measurements as given in article PMC6073568, “Efficient Lead Finding, Activity Enhancement and Preliminary Selectivity Control of Nuclear Receptor Ligands Bearing a Phenanthridinone Skeleton” (International Journal of Molecular Sciences, 2018).
# Experiments:
# RORγ = biological target: T1, RORγ (Homo sapiens, UniProt P51449); conditions: reporter gene assay, HEK293; read-out: RORγ inverse agonistic activity (IC50); cited from earlier work
# T1 construct: expressed in transfected cells; host or cells: HEK293
# T1 sequence (P51449 1-518): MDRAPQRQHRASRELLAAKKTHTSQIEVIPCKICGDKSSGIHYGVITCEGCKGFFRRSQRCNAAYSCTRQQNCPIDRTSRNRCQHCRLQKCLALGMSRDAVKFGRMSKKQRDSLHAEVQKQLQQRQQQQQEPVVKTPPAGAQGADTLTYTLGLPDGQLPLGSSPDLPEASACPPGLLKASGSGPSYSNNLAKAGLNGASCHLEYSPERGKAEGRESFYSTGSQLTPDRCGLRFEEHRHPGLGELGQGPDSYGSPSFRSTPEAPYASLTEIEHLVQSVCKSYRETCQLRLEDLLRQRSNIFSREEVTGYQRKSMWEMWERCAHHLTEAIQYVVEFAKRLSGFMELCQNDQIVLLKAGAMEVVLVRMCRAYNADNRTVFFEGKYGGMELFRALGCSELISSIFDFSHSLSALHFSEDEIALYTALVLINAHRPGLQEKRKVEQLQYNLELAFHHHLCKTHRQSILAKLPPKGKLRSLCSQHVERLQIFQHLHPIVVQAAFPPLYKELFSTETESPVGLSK
# RORα = biological target: T2, RORα (Homo sapiens, UniProt P35398); conditions: reporter gene assay, HEK293; read-out: RORα inverse agonistic activity (IC50); cited from earlier work
# T2 construct: expressed in transfected cells; host or cells: HEK293
# T2 sequence (P35398 1-523): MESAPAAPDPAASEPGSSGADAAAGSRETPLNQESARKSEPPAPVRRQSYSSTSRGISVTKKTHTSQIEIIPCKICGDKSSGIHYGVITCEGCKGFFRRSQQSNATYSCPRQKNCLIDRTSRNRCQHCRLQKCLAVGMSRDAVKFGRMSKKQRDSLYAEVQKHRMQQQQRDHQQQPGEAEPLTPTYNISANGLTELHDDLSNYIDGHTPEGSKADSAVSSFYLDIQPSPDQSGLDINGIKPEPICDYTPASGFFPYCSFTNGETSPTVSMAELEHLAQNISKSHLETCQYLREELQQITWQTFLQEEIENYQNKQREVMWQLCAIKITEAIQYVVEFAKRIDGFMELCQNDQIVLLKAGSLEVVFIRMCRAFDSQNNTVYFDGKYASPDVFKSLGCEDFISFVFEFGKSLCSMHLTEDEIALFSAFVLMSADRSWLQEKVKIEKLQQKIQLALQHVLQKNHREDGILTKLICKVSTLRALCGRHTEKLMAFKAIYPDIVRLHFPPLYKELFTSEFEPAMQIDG
# AR = biological target: T3, AR (Homo sapiens, UniProt P10275); test: AR reporter gene assay in HEK293; format: cell-based; conditions: for IC50: reporter gene assay, HEK293, agonist dihydrotestosterone 0.3 nM, read-out: AR antagonistic activity (IC50), AR reporter gene
# T3 sequence (P10275 1-920): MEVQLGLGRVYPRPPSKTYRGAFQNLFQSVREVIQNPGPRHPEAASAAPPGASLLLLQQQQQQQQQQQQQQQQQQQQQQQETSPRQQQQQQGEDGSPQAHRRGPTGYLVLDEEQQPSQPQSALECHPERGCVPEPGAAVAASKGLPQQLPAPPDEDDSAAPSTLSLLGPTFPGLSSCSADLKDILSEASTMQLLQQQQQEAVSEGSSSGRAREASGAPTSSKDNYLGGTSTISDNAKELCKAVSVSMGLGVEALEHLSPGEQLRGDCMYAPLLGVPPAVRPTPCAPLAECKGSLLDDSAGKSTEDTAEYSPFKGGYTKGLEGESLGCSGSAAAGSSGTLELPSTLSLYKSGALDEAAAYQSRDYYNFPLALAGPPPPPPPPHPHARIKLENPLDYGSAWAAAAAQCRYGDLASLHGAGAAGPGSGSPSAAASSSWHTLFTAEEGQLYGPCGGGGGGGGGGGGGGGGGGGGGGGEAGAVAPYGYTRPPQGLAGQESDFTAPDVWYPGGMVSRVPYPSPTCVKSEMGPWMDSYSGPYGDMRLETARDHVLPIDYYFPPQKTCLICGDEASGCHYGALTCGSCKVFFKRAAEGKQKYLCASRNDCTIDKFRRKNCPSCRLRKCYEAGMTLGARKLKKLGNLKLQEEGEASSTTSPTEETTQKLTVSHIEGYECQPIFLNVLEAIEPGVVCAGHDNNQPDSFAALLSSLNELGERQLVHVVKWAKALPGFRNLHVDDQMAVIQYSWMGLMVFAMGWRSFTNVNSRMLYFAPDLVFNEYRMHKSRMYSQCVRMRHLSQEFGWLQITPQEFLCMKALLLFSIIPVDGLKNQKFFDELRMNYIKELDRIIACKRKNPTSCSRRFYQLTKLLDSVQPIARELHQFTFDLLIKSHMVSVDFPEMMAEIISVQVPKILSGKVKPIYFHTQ
# LXRα = biological target: T4, LXRα (Homo sapiens, UniProt Q13133); test: LXRα reporter gene assay in HEK293; format: cell-based; conditions: read-out: LXRα antagonistic activity (IC50)
# T4 construct: CMX-GAL4N-hLXRα-LBD; expressed in transfected cells; host or cells: HEK293
# T4 sequence (Q13133 209-447 limits assumed): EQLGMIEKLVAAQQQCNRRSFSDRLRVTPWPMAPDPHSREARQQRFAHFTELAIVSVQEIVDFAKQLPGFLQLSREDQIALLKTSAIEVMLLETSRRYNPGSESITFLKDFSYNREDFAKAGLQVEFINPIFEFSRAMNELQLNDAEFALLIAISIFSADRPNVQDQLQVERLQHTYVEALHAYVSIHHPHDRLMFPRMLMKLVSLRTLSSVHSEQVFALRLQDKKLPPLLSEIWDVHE
# LXRβ = biological target: T5, LXRβ (Homo sapiens, UniProt P55055); test: LXRβ reporter gene assay in HEK293; format: cell-based; conditions: read-out: LXRβ antagonistic activity (IC50)
# T5 construct: CMX-GAL4N-hLXRβ-LBD; expressed in transfected cells; host or cells: HEK293
# T5 sequence (P55055 222-460 limits assumed): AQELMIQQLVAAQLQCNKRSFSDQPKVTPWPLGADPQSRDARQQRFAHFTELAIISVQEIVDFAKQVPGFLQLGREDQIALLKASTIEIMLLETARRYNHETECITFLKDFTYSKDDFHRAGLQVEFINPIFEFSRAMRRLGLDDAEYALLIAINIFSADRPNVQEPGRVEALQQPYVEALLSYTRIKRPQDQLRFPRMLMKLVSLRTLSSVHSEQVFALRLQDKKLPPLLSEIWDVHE
Structure (SMILES),IC50 (RORγ) [µM],IC50 (RORα) [µM],IC50 (AR) [µM],IC50 (LXRα) [µM],IC50 (LXRβ) [µM],selectivity for AR over LXRα (AR) [fold],selectivity for AR over PR (AR) [fold],selectivity for AR over RORs and LXRβ (AR),AR potency relative to OHF (more potent) (AR; under the authors' assay conditions) [fold]
O=c1[nH]c2ccc(C(O)(C(F)(F)F)C(F)(F)F)cc2c2ccccc12 [Compound 1],> 20,> 20,0.1,,,,,,
CCCCn1c(=O)c2ccccc2c2ccccc21 [Compound 7],15,10,17,19,15,,,,
CCCCn1c(=O)c2ccccc2c2cc(C(C)(C)C)ccc21 [Compound 10],10,12,17,> 20,> 20,,,,
CCCCn1c(=O)c2ccccc2c2cc(CO)ccc21 [Compound 11],> 20,> 20,9.6,> 20,> 20,,,,
Cn1c(=O)c2ccccc2c2cc(C(O)(C(F)(F)F)C(F)(F)F)ccc21 [Compound 13],> 20,> 20,0.5,,,,,,
CCn1c(=O)c2ccccc2c2cc(C(O)(C(F)(F)F)C(F)(F)F)ccc21 [Compound 14],> 20,> 20,1.7,14,6.6,,,,
CCCCCCCCCn1c(=O)c2ccccc2c2cc(C(O)(C(F)(F)F)C(F)(F)F)ccc21 [Compound 17],> 20,> 20,15,> 20,> 20,,,,
CCCCn1c(=O)c2ccccc2c2c(OC)c(C(O)(C(F)(F)F)C(F)(F)F)ccc21 [Compound 18],> 20,> 20,> 20,> 20,> 20,,,,
CCCCn1c(=O)c2ccccc2c2cc(C(O)(C(F)(F)F)C(F)(F)F)c(OC)cc21 [Compound 19],7.5,8.2,1.1,8.4,9.2,,,,
CCCCn1c(=O)c2ccccc2c2cc(C(O)(C(F)(F)F)C(F)(F)F)cc(OC)c21 [Compound 20],5.4,7.5,2.4,6.9,5.5,,,,
CCCCn1c(=O)c2c(OC)cccc2c2cc(C(O)(C(F)(F)F)C(F)(F)F)ccc21 [Compound 21],13,12,9.4,11,12,,,,
CCCCn1c(=O)c2cc(OC)ccc2c2cc(C(O)(C(F)(F)F)C(F)(F)F)ccc21 [Compound 22],13,12,1,12,11,,,,
CCCCn1c(=O)c2ccc(OC)cc2c2cc(C(O)(C(F)(F)F)C(F)(F)F)ccc21 [Compound 23],2.7,6.6,> 20,7,2.4,,,,
CCCCn1c(=O)c2cccc(OC)c2c2cc(C(O)(C(F)(F)F)C(F)(F)F)ccc21 [Compound 24],8.5,7.7,> 20,4.6,4.3,,,,
CCCCn1c(=O)c2ccccc2c2cc(C(O)(C(F)(F)F)C(F)(F)F)c(OC)c(OC)c21 [Compound 25],8.5,> 10,6.1,8.5,9.6,,,,
CCCCn1c(=O)c2ccccc2c2cc(C(O)(C(F)(F)F)C(F)(F)F)c3c(c21)OCO3 [Compound 26],> 20,> 20,0.54,> 20,> 20,,,,
CCCCn1c(=O)c2cc(OC)ccc2c2cc(C(O)(C(F)(F)F)C(F)(F)F)c(OC)cc21 [Compound 27],12,9.5,0.58,17,18,,,,
CCCCn1c(=O)c2cc(OC)ccc2c2cc(C(O)(C(F)(F)F)C(F)(F)F)cc(OC)c21 [Compound 28],9.7,11,1.7,> 10,> 10,,,,
CCCCn1c(=O)c2c(OC)c(OC)ccc2c2cc(C(O)(C(F)(F)F)C(F)(F)F)ccc21 [Compound 29],8,7.3,4.6,3.2,3.2,,,,
CCCCn1c(=O)c2c(OC)cc(OC)cc2c2cc(C(O)(C(F)(F)F)C(F)(F)F)ccc21 [Compound 30],> 20,> 20,> 20,> 20,> 20,,,,
CCCCn1c(=O)c2cc(OC)c(OC)cc2c2cc(C(O)(C(F)(F)F)C(F)(F)F)ccc21 [Compound 31],19,18,1.6,8.8,8.9,,,,
O=c1[nH]c2c(F)cc(C(O)(C(F)(F)F)C(F)(F)F)cc2c2ccccc12 [Compound 32],18,15,0.39,3.1,4.6,,,,
O=c1[nH]c2ccc(C(O)(C(F)(F)F)C(F)(F)F)cc2c2cccc(F)c12 [Compound 33],13,7.9,0.46,3.1,3.1,,,,
O=c1[nH]c2ccc(C(O)(C(F)(F)F)C(F)(F)F)cc2c2ccc(F)cc12 [Compound 34],> 20,17,0.68,7.9,6,,,,
"O=c1[nH]c2c(Cl)cc(C(O)(C(F)(F)F)C(F)(F)F)cc2c2ccccc12 [Compound 43, 4-Chloro-2-(1,1,1,3,3,3-hexafluoro-2-hydroxypropan-2-yl)phenanthridin-6(5H)-one]",,,0.059,5.3,> 20,90,6,more than 340 fold,2.9
